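A five-concentration, 48-hour dose response in 96-well plates underlies each endpoint, interpolated linearly between surrounding concentrations. TGI: total growth inhibition.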
Key:
Assay in all cases: NCI anticancer screen, dose series, 48 h
[1] = system: HCT-116 colon
[2] = system: OVCAR-5 ovarian
[3] = system: ACHN renal
[4] = system: SF-295 CNS
[5] = system: SNB-75 CNS
[6] = system: HOP-62 NSCLC
[7] = system: UACC-62 melanoma
[8] = system: MALME-3M melanoma
[9] = system: MCF7 breast
[10] = system: SW-620 colon
[11] = system: SK-MEL-2 melanoma
[12] = system: EKVX NSCLC
[13] = system: SK-MEL-5 melanoma
[14] = system: CAKI-1 renal
[15] = system: M14 melanoma
[16] = system: MDA-MB-231 breast
[17] = system: K-562 leukemia
[18] = system: SK-OV-3 ovarian
[19] = system: OVCAR-8 ovarian
[20] = system: SNB-19 CNS
[21] = system: SR leukemia
[22] = system: 786-0 renal
[23] = system: NCI/ADR-RES ovarian
[24] = system: UO-31 renal
[25] = system: MDA-N
[26] = system: DU-145 prostate
[27] = system: COLO 205 colon
[28] = system: RPMI-8226 leukemia
[29] = system: HT29 colon
[30] = system: PC-3 prostate
[31] = system: HCT-15 colon
[32] = system: T-47D breast
[33] = system: SN12C renal
[34] = system: OVCAR-3 ovarian
[35] = system: MDA-MB-435
[36] = system: OVCAR-4 ovarian
[37] = system: HS 578T breast
[38] = system: HCC-2998 colon
[39] = system: UACC-257 melanoma
[40] = system: MOLT-4 leukemia
[41] = system: LOX IMVI melanoma
[42] = system: NCI-H23 lung
[43] = system: SF-539 CNS
[44] = system: KM12 colon
[45] = system: CCRF-CEM leukemia
[46] = system: SK-MEL-28 melanoma
[47] = system: IGROV1 ovarian
[48] = system: TK-10 renal
[49] = system: NCI-H226 lung
[50] = system: RXF 393 renal
[51] = system: A549 NSCLC
[52] = system: HL-60(TB) leukemia
[53] = system: BT-549 breast
[54] = system: NCI-H460 lung
[55] = system: U251 CNS
[56] = system: SF-268 CNS
[57] = system: A498 renal
[58] = system: HOP-92 NSCLC

## OCCN=C1c2ccccc2C2C(c3ccccc31)C1c3ccccc3C(=NCCO)c3ccccc3C21 (stereo not drawn)
[1]
  TGI: 30.3 µM
[2]
  TGI: 60.7 µM
[3]
  TGI: 76.9 µM
[4]
  TGI: 30.6 µM
[5]
  TGI: 65.9 µM
[6]
  TGI: 39.4 µM
[7]
  TGI: 37.5 µM
[8]
  TGI: 75.7 µM
[9]
  TGI: 60 µM
[10]
  TGI: > 100 µM
[11]
  TGI: 30.5 µM
[12]
  TGI: > 100 µM
[13]
  TGI: 35.2 µM
[14]
  TGI: 39.5 µM
[15]
  TGI: 42.3 µM
[16]
  TGI: 31.4 µM
[17]
  TGI: 40.2 µM
[18]
  TGI: 61.5 µM
[19]
  TGI: > 100 µM
[20]
  TGI: 41.4 µM
[21]
  TGI: 28.9 µM
[22]
  TGI: 47.2 µM
[23]
  TGI: 72.6 µM
[24]
  TGI: 32.6 µM
[25]
  TGI: 31.3 µM
[26]
  TGI: 54.3 µM
[27]
  TGI: 44.4 µM
[28]
  TGI: 37.2 µM
[29]
  TGI: 34.8 µM
[30]
  TGI: 53.8 µM
[31]
  TGI: 63.9 µM
[32]
  TGI: 97 µM
[33]
  TGI: 55.8 µM
[34]
  TGI: 40.3 µM
[35]
  TGI: 40.9 µM
[36]
  TGI: 60.2 µM
[37]
  TGI: 45.7 µM
[38]
  TGI: 40.5 µM
[39]
  TGI: 69.2 µM
[40]
  TGI: 27.6 µM
[41]
  TGI: 52.6 µM
[42]
  TGI: > 100 µM
[43]
  TGI: 36.5 µM
[44]
  TGI: 44 µM
[45]
  TGI: 35.9 µM
[46]
  TGI: 36.4 µM
[47]
  TGI: 98.5 µM
[48]
  TGI: 79.5 µM
[49]
  TGI: 17.8 µM
[50]
  TGI: 51.8 µM
[51]
  TGI: 93 µM
[52]
  TGI: 47.2 µM
[53]
  TGI: 52.3 µM
[54]
  TGI: 58.3 µM
[55]
  TGI: 41.3 µM
[56]
  TGI: > 100 µM

## O=C(OCC1CCCN2CCCCC12)c1ccncc1 (stereo not drawn)
[1]
  TGI: > 100 µM
[2]
  TGI: > 100 µM
[3]
  TGI: > 100 µM
[4]
  TGI: > 100 µM
[5]
  TGI: > 100 µM
[6]
  TGI: > 100 µM
[7]
  TGI: > 100 µM
[8]
  TGI: > 100 µM
[9]
  TGI: > 100 µM
[10]
  TGI: > 100 µM
[11]
  TGI: > 100 µM
[12]
  TGI: > 100 µM
[13]
  TGI: > 100 µM
[14]
  TGI: > 100 µM
[15]
  TGI: > 100 µM
[16]
  TGI: > 100 µM
[17]
  TGI: > 100 µM
[18]
  TGI: > 100 µM
[19]
  TGI: > 100 µM
[20]
  TGI: > 100 µM
[21]
  TGI: > 100 µM
[22]
  TGI: > 100 µM
[23]
  TGI: > 100 µM
[24]
  TGI: > 100 µM
[25]
  TGI: > 100 µM
[26]
  TGI: > 100 µM
[27]
  TGI: > 100 µM
[28]
  TGI: > 100 µM
[29]
  TGI: > 100 µM
[30]
  TGI: > 100 µM
[57]
  TGI: > 100 µM
[31]
  TGI: > 100 µM
[32]
  TGI: > 100 µM
[33]
  TGI: > 100 µM
[34]
  TGI: > 100 µM
[58]
  TGI: > 100 µM
[35]
  TGI: > 100 µM
[36]
  TGI: > 100 µM
[37]
  TGI: > 100 µM
[38]
  TGI: > 100 µM
[39]
  TGI: > 100 µM
[40]
  TGI: > 100 µM
[41]
  TGI: > 100 µM
[42]
  TGI: > 100 µM
[43]
  TGI: > 100 µM
[44]
  TGI: > 100 µM
[45]
  TGI: > 100 µM
[46]
  TGI: > 100 µM
[47]
  TGI: > 100 µM
[48]
  TGI: > 100 µM
[49]
  TGI: > 100 µM
[50]
  TGI: > 100 µM
[51]
  TGI: > 100 µM
[53]
  TGI: > 100 µM
[54]
  TGI: > 100 µM
[55]
  TGI: > 100 µM
[56]
  TGI: > 100 µM
